Measured values published in US7138361B2, “Herbicidal heterocycles” (E. I. du Pont de Nemours and Company, priority 2000, dated 2006).

Columns and labels:
Assay type in all cases: in vivo
[1] = test system: velvetleaf (Abutilon theophrasti); assay: Test C postemergence
Procedure, shortened: (§1)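 Herbicidal effect is a visual 0–100 score (100 = complete control) assigned versus untreated plants, 12 to 14 days after spraying in the greenhouse. Test compounds were applied in a non-phytotoxic, surfactant-containing solvent.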

[2] = test system: Surinam grass (Brachiaria decumbens); assay: Test C postemergence
Procedure, shortened: as §1

soybean (Glycine max) = assay: Test C postemergence
Procedure, shortened: as §1

[3] = test system: goosegrass (Eleusine indica); assay: Test C postemergence
Procedure, shortened: as §1

[4] = test system: lambsquarters (Chenopodium album); assay: Test C postemergence
Procedure, shortened: as §1

[5] = test system: johnsongrass (Sorghum halepense); assay: Test C postemergence
Procedure, shortened: as §1

[6] = test system: crabgrass (Digitaria sanguinalis); assay: Test C postemergence
Procedure, shortened: as §1

kochia (Kochia scoparia) = assay: Test C postemergence
Procedure, shortened: as §1

[7] = test system: yellow nutsedge (Cyperus esculentus); assay: Test C postemergence
Procedure, shortened: as §1

[8] = test system: morningglory (Ipomoea hederacea); assay: Test C postemergence
Procedure, shortened: as §1

[9] = test system: giant foxtail (Setaria faberii); assay: Test C postemergence
Procedure, shortened: as §1

[10] = test system: cocklebur (Xanthium strumarium); assay: Test C postemergence
Procedure, shortened: as §1

[11] = test system: pigweed (Amaranthus retroflexus); assay: Test C postemergence
Procedure, shortened: as §1

[12] = test system: woolly cupgrass (Eriochloa villosa); assay: Test C postemergence
Procedure, shortened: as §1

[13] = test system: bermudagrass (Cynodon dactylon); assay: Test C postemergence
Procedure, shortened: as §1

corn (Zea mays) = assay: Test C postemergence
Procedure, shortened: as §1

Sunflower = assay: Test C preemergence; details: Rate 250 g/ha, scale 0 to 100, 0 no effect, 100 complete control
[14] = Rate 250 g/ha, scale 0 to 100 (0 no effect, 100 complete control)
[15] = Rate 500 g/ha, scale 0 to 100 (0 no effect, 100 complete control)
[16] = Rate 125 g/ha, scale 0 to 100, 0 no effect, 100 complete control

## CCC(CC)c1ccn(C2OCN(c3cccc(OC(F)F)c3)C2=O)n1 (centres unmarked) [Compound 131]
[1]; Rate 62 g/ha, scale 0 to 100
  Plant response rating, Velvetleaf: 20
[1]; [14]
  Plant response rating, Velvetleaf: 20
[1]; [15]
  Plant response rating, Velvetleaf: 30
[1]; scale 0 to 100
  Plant response rating, Velvetleaf: 20
[2]; Rate 62 g/ha, scale 0 to 100
  Plant response rating, Surinam grass: 0
[2]; [14]
  Plant response rating, Surinam grass: 40
[2]; [15]
  Plant response rating, Surinam grass: 40
Soybean (Glycine max); Rate 62 g/ha, scale 0 to 100
  Plant response rating, Soybean: 20
Soybean (Glycine max); [14]
  Plant response rating, Soybean: 30
Soybean (Glycine max); [15]
  Plant response rating, Soybean: 50
[3]; Rate 62 g/ha, scale 0 to 100
  Plant response rating, Goosegrass: 40
[3]; [14]
  Plant response rating, Goosegrass: 70
[3]; [15]
  Plant response rating, Goosegrass: 80
[4]; Rate 62 g/ha, scale 0 to 100
  Plant response rating, Lambsquarters: 100
[4]; [14]
  Plant response rating, Lambsquarters: 100
[4]; [15]
  Plant response rating, Lambsquarters: 100
[5]; Rate 62 g/ha, scale 0 to 100
  Plant response rating, Johnsongrass: 0
[5]; [15]
  Plant response rating, Johnsongrass: 30
[5]; rate not given, scale 0 to 100
  Plant response rating, Johnsongrass: 20
[6]; [14]
  Plant response rating, Crabgrass: 80
[6]; [15]
  Plant response rating, Crabgrass: 90
Kochia (Kochia scoparia); Rate 62 g/ha, scale 0 to 100
  Plant response rating, Kochia: 60
Kochia (Kochia scoparia); [14]
  Plant response rating, Kochia: 80
Kochia (Kochia scoparia); [15]
  Plant response rating, Kochia: 90
[7]; Rate 62 g/ha, scale 0 to 100
  Plant response rating, Nutsedge: 0
[7]; [14]
  Plant response rating, Nutsedge: 0
[7]; [15]
  Plant response rating, Nutsedge: 0
[8]; [14]
  Plant response rating, Morningglory: 80
[8]; [15]
  Plant response rating, Morningglory: 100
[9]; Rate 62 g/ha, scale 0 to 100
  Plant response rating, Foxtail, Giant: 20
[9]; [14]
  Plant response rating, Foxtail, Giant: 50
[9]; [15]
  Plant response rating, Foxtail, Giant: 80
[10]; Rate 62 g/ha, scale 0 to 100
  Plant response rating, Cocklebur: 0
[10]; [14]
  Plant response rating, Cocklebur: 30
[10]; [15]
  Plant response rating, Cocklebur: 30
[11]; Rate 62 g/ha, scale 0 to 100
  Plant response rating, Pigweed: 20
[11]; [14]
  Plant response rating, Pigweed: 90
[11]; [15]
  Plant response rating, Pigweed: 100
[12]; Rate 62 g/ha, scale 0 to 100
  Plant response rating, Cupgrass, Woolly: 10
[12]; [14]
  Plant response rating, Cupgrass, Woolly: 70
[12]; [15]
  Plant response rating, Cupgrass, Woolly: 80
[13]; Rate 62 g/ha, scale 0 to 100
  Plant response rating, Bermudagrass: 20
[13]; [16]
  Plant response rating, Bermudagrass: 60
[13]; [14]
  Plant response rating, Bermudagrass: 90
[13]; [15]
  Plant response rating, Bermudagrass: 90
Corn (Zea mays); Rate 62 g/ha, scale 0 to 100
  Plant response rating, Corn: 0
Corn (Zea mays); [14]
  Plant response rating, Corn: 20
Corn (Zea mays); [15]
  Plant response rating, Corn: 30
Corn (Zea mays); scale 0 to 100
  Plant response rating, Corn: 10
Sunflower
  Plant response rating, Sunflower: 20

## CCC(C)c1ccn(C2CCN(c3ccc(Cl)c(OC)c3)C2=O)n1 (centres unmarked) [Compound 119]
[1]; Rate 62 g/ha, scale 0 to 100
  Plant response rating, Velvetleaf: 0
[1]; [14]
  Plant response rating, Velvetleaf: 10
[1]; [15]
  Plant response rating, Velvetleaf: 20
[1]; scale 0 to 100
  Plant response rating, Velvetleaf: 0
[2]; Rate 62 g/ha, scale 0 to 100
  Plant response rating, Surinam grass: 0
[2]; [16]
  Plant response rating, Surinam grass: 0
[2]; [14]
  Plant response rating, Surinam grass: 0
[2]; [15]
  Plant response rating, Surinam grass: 20
Soybean (Glycine max); Rate 62 g/ha, scale 0 to 100
  Plant response rating, Soybean: 40
Soybean (Glycine max); [14]
  Plant response rating, Soybean: 80
Soybean (Glycine max); [15]
  Plant response rating, Soybean: 90
[3]; Rate 62 g/ha, scale 0 to 100
  Plant response rating, Goosegrass: 0
[3]; [14]
  Plant response rating, Goosegrass: 0
[3]; [15]
  Plant response rating, Goosegrass: 30
[4]; Rate 62 g/ha, scale 0 to 100
  Plant response rating, Lambsquarters: 90
[4]; [14]
  Plant response rating, Lambsquarters: 90
[4]; [15]
  Plant response rating, Lambsquarters: 100
[5]; Rate 62 g/ha, scale 0 to 100
  Plant response rating, Johnsongrass: 0
[5]; [14]
  Plant response rating, Johnsongrass: 0
[5]; [15]
  Plant response rating, Johnsongrass: 0
[5]; rate not given, scale 0 to 100
  Plant response rating, Johnsongrass: 0
[6]; Rate 62 g/ha, scale 0 to 100
  Plant response rating, Crabgrass: 30
[6]; [14]
  Plant response rating, Crabgrass: 30
[6]; [15]
  Plant response rating, Crabgrass: 60
Kochia (Kochia scoparia); Rate 62 g/ha, scale 0 to 100
  Plant response rating, Kochia: 60
Kochia (Kochia scoparia); [14]
  Plant response rating, Kochia: 90
Kochia (Kochia scoparia); [15]
  Plant response rating, Kochia: 90
[7]; Rate 62 g/ha, scale 0 to 100
  Plant response rating, Nutsedge: 0
[7]; [14]
  Plant response rating, Nutsedge: 0
[7]; [15]
  Plant response rating, Nutsedge: 0
[8]; Rate 62 g/ha, scale 0 to 100
  Plant response rating, Morningglory: 80
[8]; [14]
  Plant response rating, Morningglory: 100
[9]; Rate 62 g/ha, scale 0 to 100
  Plant response rating, Foxtail, Giant: 0
[9]; [14]
  Plant response rating, Foxtail, Giant: 0
[9]; [15]
  Plant response rating, Foxtail, Giant: 80
[10]; Rate 62 g/ha, scale 0 to 100
  Plant response rating, Cocklebur: 50
[10]; [14]
  Plant response rating, Cocklebur: 70
[11]; Rate 62 g/ha, scale 0 to 100
  Plant response rating, Pigweed: 40
[11]; [14]
  Plant response rating, Pigweed: 90
[12]; Rate 62 g/ha, scale 0 to 100
  Plant response rating, Cupgrass, Woolly: 0
[12]; [14]
  Plant response rating, Cupgrass, Woolly: 0
[12]; [15]
  Plant response rating, Cupgrass, Woolly: 20
[13]; Rate 62 g/ha, scale 0 to 100
  Plant response rating, Bermudagrass: 0
[13]; [16]
  Plant response rating, Bermudagrass: 0
[13]; [14]
  Plant response rating, Bermudagrass: 0
[13]; [15]
  Plant response rating, Bermudagrass: 0
Corn (Zea mays); Rate 62 g/ha, scale 0 to 100
  Plant response rating, Corn: 20
Corn (Zea mays); [14]
  Plant response rating, Corn: 20
Corn (Zea mays); [15]
  Plant response rating, Corn: 50
Corn (Zea mays); scale 0 to 100
  Plant response rating, Corn: 20
Sunflower
  Plant response rating, Sunflower: 40
